The experiment has as its target CFTR-mediated chloride transport (Homo sapiens, UniProt P13569). Type of experiment: cell-based. The conditions noted are these: enteroid cells incubated with test compound 18-24 hours, acute 10 μM forskolin and 300 nM Compound III; for Max. Activity: % of chloride transport with 3 μM Compound A, 3 μM Compound II and 300 nM acute Compound III triple combination control. How it is done:
Base medium (ADF+++) consisted of Advanced DMEM/Ham's F12, 2 mM Glutamax, 10 mM HEPES, […] penicillin/streptomycin.
Intestinal enteroid maintenance medium (IEMM) consisted of ADF+++, 1× B27 supplement, 1× N2 supplement, 1.25 mM N-acetyl cysteine, 10 mM Nicotinamide, 50 ng/mL hEGF, 10 nM Gastrin, 1 μg/mL hR-spondin-1, 100 ng/mL hNoggin, TGF-b type 1 inhibitor A-83-01, 100 μg/mL Primocin, 10 μM P38 MAPK inhibitor SB202190.
Bath 1 Buffer consisted of 1 mM MgCl2, 160 mM NaCl, 4.5 mM KCl, 10 mM HEPES, 10 mM Glucose, 2 mM CaCl2).
Chloride Free Buffer consisted of 1 mM Magnesium Gluconate, 2 mM Calcium Gluconate, 4.5 mM Potassium Gluconate, 160 mM Sodium Gluconate, 10 mM HEPES, 10 mM Glucose.
Bath1 Dye Solution consisted of Bath 1 Buffer, 0.04% Pluronic F127, 20 μM Methyl Oxonol, 30 μM CaCCinh-A01, 30 μM Chicago Sky Blue.
Chloride Free Dye Solution consisted of Chloride Free Buffer, 0.04% Pluronic F127, 20 μM Methyl Oxonol, 30 μM CaCCinh-A01, 30 μM Chicago Sky Blue.
Chloride Free Dye Stimulation Solution consisted of Chloride Free Dye Solution, 10 μM forskolin, 100 μM IBMX, and 300 nM Compound III.
Human intestinal epithelial enteroid cells were obtained from the Hubrecht Institute for Developmental Biology and Stem Cell Research, Utrecht, The Netherlands and expanded in T-Flasks as previously described (Dekkers J F, Wiegerinck C L, de Jonge H R, Bronsveld I, Janssens H M, de Winter-de Groot K M, Brandsma A M, de Jong N W M, Bijvelds M J C, Scholte B J, Nieuwenhuis E E S, van den Brink S, Clevers H, van der Ent C K, Middendorp S and M Beekman J M. A functional CFTR assay using primary cystic fibrosis intestinal organoids. Nat Med. 2013 July; 19(7):939-45).
Cells were recovered in cell recovery solution, collected by centrifugation at 650 rpm for 5 min at 4° C., resuspended in TryPLE and incubated for 5 min at 37° C. Cells were then collected by centrifugation at 650 rpm for 5 min at 4° C. and resuspended in IEMM containing 10 μM ROCK inhibitor (RI) (trans-4-[(1R)-1-aminoethyl]-N-4-pyridinylcyclohexanecarboxamide). The cell suspension was passed through a 40 μm cell strainer and resuspended at 1×10^6 cells/mL in IEMM containing 10 μM RI. Cells were seeded at 5000 cells/well into multi-well plates and incubated for overnight at 37° C., 95% humidity and 5% CO2 prior to assay.
Enteroid cells were incubated with test compound in IEMM for 18-24 hours at 37° C., 95% humidity and 5% CO2. Following compound incubations, a membrane potential dye assay was employed using a FLIPR Tetra to directly measure the potency and efficacy of the test compound on CFTR-mediated chloride transport following acute addition of 10 μM forskolin and 300 nM Compound III. Briefly, cells were washed 5 times in Bath 1 Buffer. Bath 1 Dye Solution was added and the cells were incubated for 25 min at room temperature. Following dye incubation, cells were washed 3 times in Chloride Free Dye Solution. Chloride transport was initiated by addition of Chloride Free Dye Stimulation Solution and the fluorescence signal was read for 15 min. The CFTR-mediated chloride transport for each condition was determined from the AUC of the fluorescence response to acute forskolin and 300 nM Compound III stimulation. Chloride transport was then expressed as a percentage of the chloride transport following treatment with 3 μM Compound A, 3 μM Compound II and 300 nM acute Compound III triple combination control (% Activity).

By EC50 is commonly meant the concentration that produces a half-maximal response.

Sequence of CFTR-mediated chloride transport (P13569 whole entry, looked up): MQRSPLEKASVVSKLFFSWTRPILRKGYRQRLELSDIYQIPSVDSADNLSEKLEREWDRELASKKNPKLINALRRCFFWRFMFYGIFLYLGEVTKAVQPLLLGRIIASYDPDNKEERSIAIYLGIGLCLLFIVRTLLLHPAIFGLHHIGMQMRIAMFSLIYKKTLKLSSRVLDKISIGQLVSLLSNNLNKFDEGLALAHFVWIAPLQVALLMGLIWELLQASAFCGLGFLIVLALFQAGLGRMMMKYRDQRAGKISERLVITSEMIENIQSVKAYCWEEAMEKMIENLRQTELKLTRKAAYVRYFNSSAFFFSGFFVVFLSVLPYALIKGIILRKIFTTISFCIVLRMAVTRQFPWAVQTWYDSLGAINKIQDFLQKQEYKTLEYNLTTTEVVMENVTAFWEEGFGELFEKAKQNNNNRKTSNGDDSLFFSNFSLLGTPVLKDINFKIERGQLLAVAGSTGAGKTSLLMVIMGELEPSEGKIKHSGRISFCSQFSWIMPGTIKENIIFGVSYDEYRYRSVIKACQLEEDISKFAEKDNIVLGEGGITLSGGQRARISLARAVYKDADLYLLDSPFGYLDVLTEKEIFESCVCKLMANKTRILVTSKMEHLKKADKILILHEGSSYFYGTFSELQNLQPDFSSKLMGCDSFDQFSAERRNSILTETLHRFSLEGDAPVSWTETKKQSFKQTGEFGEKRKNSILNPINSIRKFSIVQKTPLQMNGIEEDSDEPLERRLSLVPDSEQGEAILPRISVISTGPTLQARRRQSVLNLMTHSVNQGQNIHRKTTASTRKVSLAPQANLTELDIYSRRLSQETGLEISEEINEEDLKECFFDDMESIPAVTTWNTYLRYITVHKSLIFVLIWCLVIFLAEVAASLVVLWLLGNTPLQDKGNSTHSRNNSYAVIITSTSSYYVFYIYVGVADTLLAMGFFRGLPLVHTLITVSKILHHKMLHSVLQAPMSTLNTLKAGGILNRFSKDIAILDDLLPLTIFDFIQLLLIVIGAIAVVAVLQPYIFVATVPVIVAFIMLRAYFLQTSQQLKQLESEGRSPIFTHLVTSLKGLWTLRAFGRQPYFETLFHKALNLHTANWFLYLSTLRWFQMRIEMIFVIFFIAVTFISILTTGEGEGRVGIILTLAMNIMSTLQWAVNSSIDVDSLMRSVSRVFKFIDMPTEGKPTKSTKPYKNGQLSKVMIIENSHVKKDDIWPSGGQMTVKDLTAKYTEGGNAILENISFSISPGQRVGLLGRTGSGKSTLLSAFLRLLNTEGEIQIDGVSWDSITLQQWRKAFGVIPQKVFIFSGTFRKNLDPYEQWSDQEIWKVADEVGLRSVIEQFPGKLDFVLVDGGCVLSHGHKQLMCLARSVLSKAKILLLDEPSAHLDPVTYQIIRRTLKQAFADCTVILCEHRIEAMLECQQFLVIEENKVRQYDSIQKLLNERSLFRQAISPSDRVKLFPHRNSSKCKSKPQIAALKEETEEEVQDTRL

Regarding `CC1(C)C[C@H]2CCCCNc3cccc(n3)S(=O)(=O)NC(=O)c3ccc(-n4ccc(OCCC5(C(F)(F)F)CC5)n4)nc3N1C2` (single isomer, unassigned) [Compound 29, 12,12-dimethyl-8-(3-{2-[1-(trifluoromethyl)cyclopropyl]ethoxy}-1H-pyrazol-1-yl)-2λ^6-thia-3,9,11,19,24-pentaazatetracyclo[18.3.1.111,14.05,10]pentacosa-1(23),5,7,9,20(24),21-hexaene-2,2,4-trione], the concentration for a half-maximal effect (EC50) was below 1000 nM and the “Max. Activity” value is listed as “++ (++ is 30-60%)”.

Turning to `CC1(C)C[C@H]2CCCCNc3cccc(n3)S(=O)(=O)NC(=O)c3ccc(-n4ccc(OCCC5(C(F)(F)F)CC5)n4)nc3N1C2` (single isomer, unassigned) [Compound 30, 12,12-dimethyl-8-(3-{2-[1-(trifluoromethyl)cyclopropyl]ethoxy}-1H-pyrazol-1-yl)-2λ^6-thia-3,9,11,19,24-pentaazatetracyclo[18.3.1.111,14.05,10]pentacosa-1(23),5,7,9,20(24),21-hexaene-2,2,4-trione], the EC50 was below 1000 nM and the “Max. Activity” value was “+++ (+++ is >60%)”.

As to `CC1(C)C[C@H]2CCCCn3ccc(n3)S(=O)(=O)NC(=O)c3ccc(-n4ccc(OCCC5(C(F)(F)F)CC5)n4)nc3N1C2` (single isomer, unassigned) [Compound 44, 21,21-dimethyl-4-(3-{2-[1-(trifluoromethyl)cyclopropyl]ethoxy}-1H-pyrazol-1-yl)-10λ^6-thia-1,3,9,14,23-pentaazatetracyclo[17.2.1.111,14.02,7]tricosa-2,4,6,11(23),12-pentaene-8,10,10-trione], the EC50 was above 3000 nM and the “Max. Activity” value is “++ (++ is 30-60%)”.

Take `CC1(C)C[C@H]2CCCCn3ccc(n3)S(=O)(=O)NC(=O)c3ccc(-n4ccc(OCCC5(C(F)(F)F)CC5)n4)nc3N1C2` (single isomer, unassigned) [Compound 45, 21,21-dimethyl-4-(3-{2-[1-(trifluoromethyl)cyclopropyl]ethoxy}-1H-pyrazol-1-yl)-10λ^6-thia-1,3,9,14,23-pentaazatetracyclo[17.2.1.111,14.02,7]tricosa-2,4,6,11(23),12-pentaene-8,10,10-trione]: the EC50 is below 1000 nM and the “Max. Activity” value is reported as “+++ (+++ is >60%)”.

As to `CC1(C)CC[C@H]2CCCCNc3cccc(n3)S(=O)(=O)NC(=O)c3ccc(-n4ccc(OCCC5(C(F)(F)F)CC5)n4)nc3N21` (single isomer, unassigned) [Compound 46, 12,12-dimethyl-8-(3-{2-[1-(trifluoromethyl)cyclopropyl]ethoxy}-1H-pyrazol-1-yl)-2λ^6-thia-3,9,11,20,25-pentaazatetracyclo[19.3.1.05,10.011,15]pentacosa-1(24),5,7,9,21(25),22-hexaene-2,2,4-trione], the EC50 is above 3000 nM and the “Max. Activity” value is given as “+ (+ is <30%)”.

On to `CC1(C)CC[C@H]2CCCCNc3cccc(n3)S(=O)(=O)NC(=O)c3ccc(-n4ccc(OCCC5(C(F)(F)F)CC5)n4)nc3N21` (single isomer, unassigned) [Compound 47, 12,12-dimethyl-8-(3-{2-[1-(trifluoromethyl)cyclopropyl]ethoxy}-1H-pyrazol-1-yl)-2λ^6-thia-3,9,11,20,25-pentaazatetracyclo[19.3.1.05,10.011,15]pentacosa-1(24),5,7,9,21(25),22-hexaene-2,2,4-trione], for which the EC50 was below 1000 nM and the “Max. Activity” value is recorded as “+++ (+++ is >60%)”.

For the compound `CC1(C)C[C@H]2CCCOc3cccc(n3)S(=O)(=O)NC(=O)c3ccc(-n4ccc(OCCC5(C(F)(F)F)CC5)n4)nc3N1C2` (single isomer, unassigned) [Compound 48, 12,12-dimethyl-8-(3-{2-[1-(trifluoromethyl)cyclopropyl]ethoxy}-1H-pyrazol-1-yl)-18-oxa-2λ^6-thia-3,9,11,23-tetraazatetracyclo[17.3.1.111,14.05,10]tetracosa-1(22),5,7,9,19(23),20-hexaene-2,2,4-trione], the half-maximal effective concentration (EC50) is above 3000 nM and the “Max. Activity” value is “+ (+ is <30%)”.

As to `CC1(C)C[C@H]2CCCOc3cccc(n3)S(=O)(=O)NC(=O)c3ccc(-n4ccc(OCCC5(C(F)(F)F)CC5)n4)nc3N1C2` (single isomer, unassigned) [Compound 49, 12,12-dimethyl-8-(3-{2-[1-(trifluoromethyl)cyclopropyl]ethoxy}-1H-pyrazol-1-yl)-18-oxa-2λ^6-thia-3,9,11,23-tetraazatetracyclo[17.3.1.111,14.05,10]tetracosa-1(22),5,7,9,19(23),20-hexaene-2,2,4-trione], the EC50 was below 1000 nM and the “Max. Activity” value is on record as “+++ (+++ is >60%)”.

In the case of `CC1(C)CC[C@H]2CNc3cccc(n3)S(=O)(=O)NC(=O)c3ccc(-n4ccc(OCCC5(C(F)(F)F)CC5)n4)nc3N21` (single isomer, unassigned) [Compound 50, 7,7-dimethyl-11-(3-{2-[1-(trifluoromethyl)cyclopropyl]ethoxy}-1H-pyrazol-1-yl)-17λ^6-thia-2,8,10,16,22-pentaazatetracyclo[16.3.1.04,8.09,14]docosa-1(22),9,11,13,18,20-hexaene-15,17,17-trione], the concentration giving a half-maximal response (EC50) is above 3000 nM and the “Max. Activity” value is recorded as “+ (+ is <30%)”.

`CC1(C)CC[C@H]2CNc3cccc(n3)S(=O)(=O)NC(=O)c3ccc(-n4ccc(OCCC5(C(F)(F)F)CC5)n4)nc3N21` (single isomer, unassigned) [Compound 51, 7,7-dimethyl-11-(3-{2-[1-(trifluoromethyl)cyclopropyl]ethoxy}-1H-pyrazol-1-yl)-17λ^6-thia-2,8,10,16,22-pentaazatetracyclo[16.3.1.04,8.09,14]docosa-1(22),9,11,13,18,20-hexaene-15,17,17-trione]: the EC50 is above 3000 nM and the “Max. Activity” value was “+ (+ is <30%)”.

As to `CC1(C)C[C@H]2CCCCc3ccc(cc3)S(=O)(=O)NC(=O)c3ccc(-n4ccc(OCCC5(C(F)(F)F)CC5)n4)nc3N1C2` (single isomer, unassigned) [Compound 54, 12,12-Dimethyl-8-(3-{2-[1-(trifluoromethyl)cyclopropyl]ethoxy}-1H-pyrazol-1-yl)-2λ^6-thia-3,9,11-triazatetracyclo[17.2.2.111,14.05,10]tetracosa-1(21),5,7,9,19,22-hexaene-2,2,4-trione], the EC50 is 1000 to 3000 nM and the “Max. Activity” value is “++ (++ is 30-60%)”.

Regarding `CC1(C)C[C@H]2CCCCc3ccc(cc3)S(=O)(=O)NC(=O)c3ccc(-n4ccc(OCCC5(C(F)(F)F)CC5)n4)nc3N1C2` (single isomer, unassigned) [Compound 55, 12,12-Dimethyl-8-(3-{2-[1-(trifluoromethyl)cyclopropyl]ethoxy}-1H-pyrazol-1-yl)-2λ^6-thia-3,9,11-triazatetracyclo[17.2.2.111,14.05,10]tetracosa-1(21),5,7,9,19,22-hexaene-2,2,4-trione], the EC50 is below 1000 nM and the “Max. Activity” value is on record as “+++ (+++ is >60%)”.

With `CC1(C)C[C@H]2CCCCc3cccc(c3)S(=O)(=O)NC(=O)c3ccc(-n4ccc(OCCC5(C(F)(F)F)CC5)n4)nc3N1C2` (single isomer, unassigned) [Compound 56, 12,12-dimethyl-8-(3-{2-[1-(trifluoromethyl)cyclopropyl]ethoxy}-1H-pyrazol-1-yl)-2λ^6-thia-3,9,11-triazatetracyclo[17.3.1.111,14.05,10]tetracosa-1(22),5,7,9,19(23),20-hexaene-2,2,4-trione], the EC50 was below 1000 nM and the “Max. Activity” value is on record as “+ (+ is <30%)”.
